# Laboratory results reported in patent US7259136B2, “Compositions and methods for treating peripheral vascular disease” (Amylin Pharmaceuticals, Inc., priority 1999, dated 2007).
# Where no end group is shown, it is not given here.
# Legend:
# [1] = test system: pancreas; details: cited from earlier work
# [2] = test system: Cardiac Muscle Ischemia and Reperfusion; experiment: Left circumflex coronary occlusion (10 min) and reperfusion in dogs; format: in vivo
# Method: Two dogs were studied at baseline before, during, and for 6 hours after a 10-minute complete left circumflex coronary (LCx) occlusion. Each dog underwent occlusion/reperfusion in the presence and absence of GLP-1 infusion for […], beginning 1 minute prior to reperfusion.
# [3] = test system: Cardiac Muscle Ischemia and Reperfusion; experiment: LAD coronary artery occlusion (25 min) and reperfusion (2 h) in anesthetized rats; format: in vivo, Wistar rats
# Method: Wistar rats were anesthetized with thiopentone sodium. The left anterior descending (LAD) coronary artery was occluded. After 25 minutes of occlusion, reperfusion was allowed for 2 hours. This animal model has been described previously. Zacharowski, et al. […] Br. J. Pharmacol. 128, 945–952.
# GLP-1 (1.5 microgram/kg/min) was infused into anesthetized rats (n=10), commencing 10 minutes prior to reperfusion and continuing throughout the 2-hour reperfusion. Controls were sham operated with no occlusion (n=7), LAD occlusion+reperfusion+administration of saline (n=12), and LAD occlusion and reperfusion with vehicle (10 mM sodium acetate, 5.05% D-mannitol, pH 4.5, 1.5 mL/kg/hour; n=10).
# Following reperfusion, the coronary artery was reoccluded, and Evans Blue dye (4 ml, 2% w/v) was injected into the left ventricle of the heart via a right carotid artery cannula. Evans Blue stains the perfused myocardium, while the occluded vascular bed remains uncolored. Animals were euthanized by anesthetic overdose and the hearts were removed for examination. Hearts were sectioned and the right ventricular wall was removed. The area at risk (pink) was separated from the non-ischemic tissue (blue). The area at risk (pink) was then cut into smaller pieces and stained with p-nitroblue tetrazolium (NBT; 0.5 mg/ml) for 20 min. at 37° C. In the presence of intact dehydrogenase enzyme systems (viable myocardium), NBT forms a dark blue compound. Areas of necrosis lack the enzyme and remain unstained. Tissue was separated according to staining and weighed to determine infarct size as a percentage of the area at risk.
Substance,stimulation of production or release of insulin from the pancreas [1],"stunning period ([2]; dogs, GLP-1 during reperfusion after subcritical ischemia)","recovery of ventricular wall regional dysfunction ([2]; two dogs, GLP-1 infusion for 24 hours beginning 1 minute prior to reperfusion, after 10 minutes of coronary artery occlusion)","infarct size as a percentage of the area at risk ([3]; GLP-1 1.5 microgram/kg/min infusion from 10 min prior to reperfusion throughout 2-hour reperfusion, n=10)","reduction in infarct size compared with the vehicle group ([3]; GLP-1 1.5 microgram/kg/min infusion, p<0.05)",hemodynamics ([3]; GLP-1 infusion)
"GLP-1(9-37): DPP IV inactivation product of GLP-1(7-37), SEQ ID NO:5 (EGTFTSDVSSYLEGQAAKEFIAWLVKGRG; mammalian)",do not stimulate production or release of insulin,,,,,
"GLP-1(9-36)amide: DPP IV inactivation product of GLP-1(7-36)amide, SEQ ID NO:6 (EGTFTSDVSSYLEGQAAKEFIAWLVKGR-NH2)",do not stimulate production or release of insulin,,,,,
glucagon-like peptide-1 [GLP-1],,significantly reduced the stunning period,enhanced the recovery of ventricular wall regional dysfunction,31+/−4 % of the area at risk,approximately 33%,significantly improved hemodynamics
